Laboratory results published in patent US20200347362A1, “COMPOSITION AND METHOD FOR INCREASING PRODUCTION OF BACTERIOPHAGE USING REACTIVE OXYGEN SPECIES” (Hankuk University of Foreign Studies Research & Business …, priority 2017, published 2020).
Where two headings read alike, the source gives them in different places.

How the values were obtained:
E. coli [1] = conditions: E. coli cultured in liquid medium with sub-lethal dose of hydrogen peroxide (FIG. 2)
Description: Bacteria Imaging. The bacterial morphologies were observed under a laser scanning microscope using ZEN software. (Zeiss LSM 700). For sampling, 5˜10 ul of the bacteria was dropped on a glass slide and covered with a coverslip. After 20 min of drying in a fume hood, the bacteria were observed using a 100× objective lens. When the bacteria were cultured using a glass-bottom 96-well black plate (Ibidi #89626), the bacteria were fixed with cold acetone and blocked with 1% BSA in PBST for 30 min.
(§1) The serially diluted phage solution was plated to a solid medium containing sublethal dose of H2O2 by using a double agar overlay and the number of phages was counted.

E. coli [2] = test system: E. coli
Description: In the present disclosure, the term “sublethal concentration” refers to a concentration that affects the growth of the bacteria but is not enough to cause bacterial death. The concentration may vary and be determined depending on the particular ROS, bacteria, and/or culture medium employed. In one embodiment of the present disclosure, the sublethal concentration is defined as a minimum concentration at which the growth rate of bacteria remains constant until 1 hr after the treatment with ROS, which begin to decrease 2 hrs after the treatment with ROS.
H2O2 was used as ROS, which was prepared by 1:2 serial dilution.

[3] = test system: bacteriophage T4 in E. coli K12 (MG1655)
Description: E. coli K12 (MG1655) was cultured overnight. The overnight culture was inoculated at 1:100 (vol:vol) ratio to a 10 ml LB broth in a 50 ml tube and incubated for 1 hr to prepare a fresh culture. When the E. coli K12 strain reached an OD600 of 0.3, H2O2 was added at a final concentration of 4.5 mM and incubated further for 1 hr until OD600 of 0.5˜0.7.
Then T4 was added at a multiplicity of infection (MOI) of 0.001 and incubated further for 5 min at 37° C. in a shaking incubator to allow for phage adsorption. Then the culture was centrifuged at 12,000 rmp for 5 min and the supernatant was removed. Ten ml of fresh LB broth was added to the pellet and resuspended. When the resuspension was completed, which was set to 0 min, the resuspend culture was incubated at a 37° Crotary incubator at 0 min, and 500 μl of the culture was taken at 5 minute intervals. Each of the culture was then plated by a double agar overlay and the number of phages were counted.

[4] = test system: bacteriophage T4 on E. coli; conditions: solid medium, sub-lethal dose of hydrogen peroxide
Description: Phage plaque size measurement. Phage plaques were allowed to form on a bacterial lawn and the size measured using a digital caliper.
as §1

[5] = 4.5 mM H2O2, liquid medium, T4 at MOI 0.001 (FIG. 3)

How did the “bacterial morphology (filamentation, bacterial length)” value (E. coli [1]) turn out when `OO` [H2O2, hydrogen peroxide] was run?
Its value is “bacterial filamentation was clearly observed”.

What about the “bacterial morphology (filamentation, bacterial length)” value (E. coli [1]; listed as hydrogen peroxide) of the same molecule?
The value was “Increase in bacterial length due to bacterial filamentation”.

And the sublethal concentration (E. coli [2]; liquid medium (FIG. 1))?
Its sublethal concentration is 4.5 mM.

And the sublethal concentration (E. coli [2]; solid medium)?
The sublethal concentration was 0.2 mM.

What about the “delay of the start of the burst compared to the control” value [3, 5] of the same molecule?
The value was 5 min.

And the “increase of the size of the burst compared to the control” value [3, 5]?
The value was 6 times.

And the phage production ([3]; sublethal dose of H2O2)?
Its phage production is “increase in the phage production was clearly observed”.

What about the “increase of plaque size (diameter) compared to the control” value [4] of the same molecule?
Its value is “at least 5 times”.
